Reference: patent US20260001864A1, “COMPOUND CONTAINING SULFAMIDE STRUCTURE, AND PREPARATION METHOD THEREFOR AND APPLICATION THEREOF, AND PHARMACEUTICAL COMPOSITION AND APPLICATION” (Nanjing Shuohui Pharmatechnology Co., Ltd, priority 2021, published 2026)
Where two headings read alike, the source gives them in different places.

What was measured:
[1] = test system: histamine-induced gastric acid secretion; assay: Inhibition of histamine-induced gastric acid secretion in rats (pylorus ligation); format: in vivo, rat; conditions: SD rats, total acid over 3 h after histamine
Procedure: 70 SPF-level SD rats with a weight of 180-220 g (Hangzhou Medical College (produced)), randomly grouped by weight, including negative control groups (isovolumetric saline) and model control groups (isovolumetric saline), and compounds obtained in the foregoing preparation examples of the present invention (i.e., compounds or compound hydrochlorides) (2 mg/kg or 4 mg/kg), 10 rats each group, including 5 males and 5 females. The rats were fasted, but were allowed to drink water for 24 h. After 24 h, the rats were given the compound at 1 ml/100 g by gavage, once in each group, and the rats in the negative control groups and the model groups were given an equal volume of saline by gavage. After that, the rats were anesthetized with chloral hydrate 300 mg/kg (1 ml/100 g) and fixed on a rat plate, and the abdominal wall was incised along the abdominal midline from the subxiphoid process of the sternum, and the incision was approximately 2-3 cm and was made on the left costal margin, and the stomach was exposed to the incision by gently pushing it with the fingers upwards. The pylorus was ligated with a thread under the pylorus (other neighboring vessels were not ligated), and the abdominal wall incision was sutured. The animals were given histamine dihydrochloride (30 mg/10 ml/kg) subcutaneously after 1 h of gavage of the test compound or saline. After 3 h of histamine administration, the rats were asphyxiated with excess CO2, stomachs were removed, stomach contents were collected and centrifuged at 3000 rpm/min for 10 min, and the acid solution was titrated with 0.1 mol/L NaOH to pH7.0. The total acidity and acid inhibition rate during the 3 h period were calculated.
Acid inhibition rate (%)=(Total acid in the model group−total acid in the test group)/total acid in the model group×100%

[2] = biological target: H+/K+-ATPase (rabbit gastric mucosal microsomes) (Oryctolagus cuniculus (Rabbit), UniProt P27112); assay: In vitro screening test of H+/K+-ATPase inhibition (malachite green); format: biochemical; conditions: pH 6.5, 37° C. 30 min, read-out: IC50, inhibitory effect on H+/K+-ATPase activity
Source text: This test example evaluates the inhibitory effects of the compounds of the present invention on the activity of H+/K+-ATPase by an in vitro screening test, and expresses them with the IC50 values of the compounds (obtained by calculating the inhibition rates at different concentrations).
• Compound solutions: The products (i.e., the compounds or the hydrochloride salt of compounds) obtained in the foregoing preparation examples of the present invention were each independently dissolved in DMSO to form solutions at suitable concentrations; • Buffer I: 50 mmol/L HEPEs-Tris, pH=6.5, 5 mmol/L magnesium chloride, […] valinomycin (J&K Scientific Ltd., goods No.: 227304); • Buffer II: 50 mmol/L HEPEs-Tris, pH=6.5, 5 mmol/L magnesium chloride, […] valinomycin, 5 mmol/L potassium chloride; • 5-adenosine triphosphate (ATP, Sigma-Aldrich, goods No.: A2383) solution: Dilute ATP with buffer I to 5 mM; • Malachite green solution: Dissolve 0.12 wt % malachite green (J&K Scientific Ltd., goods No.: 913120) in 2.5 mol/L sulfuric acid, 7.5 wt % ammonium molybdate (J&K Scientific Ltd., goods No.: 128321) and 11% Tween 20(V/V). During use, sulfuric acid, ammonium molybdate and Tween 20 are mixed in a ratio of 100:25:2; • Rabbit gastric mucosal microsomes (rich in H+/K+-ATPase, self-extracted), extracted by sucrose gradient centrifugation: The rabbit stomach was washed with tap water and 3M NaCl solution, respectively, and then the surface water was removed with filter paper. A pre-cooled homogenization buffer (4 ml/g tissue) was added and homogenized for 2-5 min in a tissue homogenizer. After the homogenizing, if there are large tissue particles, they can be removed by centrifugation (600 g, 10 min). The supernatant was then transferred to a clean centrifuge tube and centrifuged at 20,000 g for 30 min, then the supernatant was transferred to a clean centrifuge tube and further centrifuged at 100,000 g for 90 min and the precipitate was collected; the precipitate was suspended in homogenate and blown evenly, and the protein concentration was measured by the Bradford's method and adjusted to 10 mg/ml; 7.5 wt % Ficoll's layering solution was added in equal proportions. After centrifugation at 100,000 g for 60 min, the middle layer (H^+/K^+-ATPase-enriched gastric membranes) was collected in a clean centrifuge tube, diluted with homogenate by 4-5 times, and then centrifuged at 100,000 g for another 90 min, and the precipitate was collected; the precipitate was suspended in homogenate and homogenized in a glass homogenizer, and the protein concentration was measured by the Bradford's method and adjusted to 22.5 mg/ml. It was frozen at −80° C. and stored for future use.
5 μL of rabbit gastric mucosal microsomes (H^+/K^+-ATPase) was added to 45 μL of buffer II, then 5 μL of compound solution was added, and then 5 μL of 5 mM ATP solution was added to start the reaction and pre-react at 37° C. for 30 min. 15 μL of malachite green solution was added to terminate the reaction, balancing was conducted at room temperature for 20 min, and read the optical absorbance at 620 nm.
Meanwhile, the reaction of the same volume was carried out without addition of potassium chloride as a background, which was subtracted when calculating enzymatic activity.

[3] = Rat tissue distribution test (oral, LC-MS-MS); format: in vivo; parameters: Hepatic drug concentration: unit not given here; conditions: for Exposure level (0-4 h): male SD rats; for Exposure level (0-4 h) / Hepatic drug concentration: oral 4 mg/kg; for Kp: male, SD, plasma set to 1, oral 4 mg/kg, read-out: Ratio of exposure level; for Kp / Hepatic drug concentration: rat
Procedure: Three healthy male SD rats (body weight range 220-250 g, Zhejiang Charles River) were taken and assigned into one group (n=3). Compound 48, Compound A9 or comparison compound Vonoprazan were administered orally at a dose of 4 mg/kg.
Solvent for preparing pharmaceutical preparations: Pure water. The rats were fasted 4 h prior to the administration. […] The tissue was homogenized, and the corresponding blank tissue was used for preparation of a calibration curve and QC quantification. Blood samples should be centrifuged to extract plasma within 1 hour of collection and kept on crushed ice prior to the centrifugation. Plasma samples obtained by centrifugation were stored in a freezer until analysis. Centrifugation conditions: 4-10° C., 8000 rpm, 6 min. The concentration of the sample was determined by LC-MS-MS (MS03: Shimadzu LC30AD and API 4000)), and the exposure data were calculated by WINNOLIN software.

Chain of H+/K+-ATPase (rabbit gastric mucosal microsomes) (P27112 whole entry): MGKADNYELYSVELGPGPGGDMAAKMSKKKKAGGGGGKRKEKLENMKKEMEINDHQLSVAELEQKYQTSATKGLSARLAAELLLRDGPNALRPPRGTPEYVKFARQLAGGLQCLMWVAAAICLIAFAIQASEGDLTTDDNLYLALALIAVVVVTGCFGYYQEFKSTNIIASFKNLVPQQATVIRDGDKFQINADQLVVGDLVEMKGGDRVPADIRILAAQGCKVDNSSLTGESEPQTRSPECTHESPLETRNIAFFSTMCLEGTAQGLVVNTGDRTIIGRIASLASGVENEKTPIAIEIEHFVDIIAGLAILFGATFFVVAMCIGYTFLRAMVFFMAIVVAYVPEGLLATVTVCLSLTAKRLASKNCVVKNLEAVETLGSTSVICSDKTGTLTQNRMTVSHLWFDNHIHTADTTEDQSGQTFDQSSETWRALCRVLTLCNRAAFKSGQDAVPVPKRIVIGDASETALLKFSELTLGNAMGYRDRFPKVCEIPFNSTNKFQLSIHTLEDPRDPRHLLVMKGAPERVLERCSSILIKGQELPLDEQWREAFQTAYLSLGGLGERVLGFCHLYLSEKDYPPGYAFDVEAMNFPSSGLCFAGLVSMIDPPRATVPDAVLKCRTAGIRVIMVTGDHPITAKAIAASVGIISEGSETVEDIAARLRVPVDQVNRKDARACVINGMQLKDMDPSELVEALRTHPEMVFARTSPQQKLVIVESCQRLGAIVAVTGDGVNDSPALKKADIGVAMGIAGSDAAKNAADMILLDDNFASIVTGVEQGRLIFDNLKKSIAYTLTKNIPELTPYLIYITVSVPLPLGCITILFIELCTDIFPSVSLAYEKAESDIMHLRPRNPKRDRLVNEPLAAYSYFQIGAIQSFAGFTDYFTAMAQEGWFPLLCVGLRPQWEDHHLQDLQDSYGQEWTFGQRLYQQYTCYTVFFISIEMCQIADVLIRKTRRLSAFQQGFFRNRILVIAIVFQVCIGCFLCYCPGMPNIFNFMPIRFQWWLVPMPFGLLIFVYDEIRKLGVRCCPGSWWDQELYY
Chain of H+/K+-ATPase (rabbit gastric mucosal microsomes) (P18597 whole entry partner): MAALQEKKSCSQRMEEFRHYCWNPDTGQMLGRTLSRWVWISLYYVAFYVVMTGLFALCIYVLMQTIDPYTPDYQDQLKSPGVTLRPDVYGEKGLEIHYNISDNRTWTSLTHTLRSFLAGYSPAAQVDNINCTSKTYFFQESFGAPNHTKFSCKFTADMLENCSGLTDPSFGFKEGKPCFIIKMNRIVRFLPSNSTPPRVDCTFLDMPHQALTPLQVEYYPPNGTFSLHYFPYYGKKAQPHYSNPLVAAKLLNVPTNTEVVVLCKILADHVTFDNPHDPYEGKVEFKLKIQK

SMILES | IC50 [2] [nM] | Acid inhibition rate ([1]; 2 mg/kg by gavage) [%] | also measured
CNCc1cc(-c2ccc(OC(C)C3CCOCC3)cc2F)n(S(=O)(=O)c2cccc(OCCCOC)c2)c1 (centres unmarked) [Compound 37] | 157 | 56 | 
CNCc1cc(-c2ccc(OCc3cccnc3F)cc2F)n(S(=O)(=O)c2cccnc2)c1 [Compound A1] | 66.7 | 68 | 
CNCc1cc(-c2ccc(OCc3cnn(C)c3)cc2F)n(S(=O)(=O)c2cccnc2)c1 [Compound A3] | 51.6 | 65 | 
CNCc1cc(-c2ccc(OCC3CO3)cc2F)n(S(=O)(=O)c2cccnc2)c1 (centres unmarked) [Compound A11] | 14.1 | 81 | 
CNCc1cc(-c2ccc(OCC3COC3)cc2F)n(S(=O)(=O)c2cccnc2)c1 [Compound A12] | 119 | 63 | 
CNCc1cc(-c2ccc(OCC3CCOC3)cc2F)n(S(=O)(=O)c2cccnc2)c1 (centres unmarked) [Compound A13] | 128 | 60 | 
CNCc1cc(-c2ccccc2F)n(S(=O)(=O)c2cccnc2)c1 [Vonoprazan, reference compound] |  |  | Hepatic drug concentration ([3]; liver, 15 min): 9919; Hepatic drug concentration ([3]; liver, 1 h): 1192; Hepatic drug concentration ([3]; liver, 2 h): 632; Hepatic drug concentration ([3]; liver, 4 h): 162; Hepatic drug concentration ([3]; liver, 24 h): 23.7

More lines, in order of falling IC50 [2], values ahead:

IC50 [2] [nM] | SMILES | Acid inhibition rate ([1]; 2 mg/kg by gavage) [%] | also measured
41 | CNCc1cc(-c2ccc(OC(C)c3c(F)cccc3F)cc2F)n(S(=O)(=O)c2cccnc2)c1 (centres unmarked) [Compound 67] | 64 | 
36 | CNCc1cn(S(=O)(=O)c2cccnc2)c(-c2ccc(OCC3CC3)cc2F)c1OC [Compound 48, 1-(5-(4-(cyclopropylmethoxy)-2-fluorophenyl)-4-methoxy-1-(pyridin-3-ylsulfonyl)-1H-pyrrolo-3-yl)-N-methylmethylamine] | 75 | Acid inhibition rate ([1]; 4 mg/kg by gavage): 86%; Exposure level (0-4 h) ([3]; liver): 7585.5 ng·h/mL; Kp ([3]; liver): 88.4; Kp ([3]; plasma): 1; Kp ([3]; stomach): 171; Exposure level (0-4 h) ([3]; plasma): 85.8 ng·h/mL; Exposure level (0-4 h) ([3]; stomach): 14693.7 ng·h/mL
30.8 | CNCc1cc(-c2ccc(OCC3CCOCC3)cc2F)n(S(=O)(=O)c2cccc(C#N)c2)c1 [Compound 28] | 71 | 
27.7 | CNCc1cc(-c2ccc(OCC3CC3(F)F)cc2F)n(S(=O)(=O)c2cccnc2)c1 (centres unmarked) [Compound A10] | 81 | Acid inhibition rate ([1]; 4 mg/kg by gavage): 87%
18.4 | CNCc1cc(-c2ccc(OCc3ccn(C)n3)cc2F)n(S(=O)(=O)c2cccnc2)c1 [Compound A8] | 58 | 
